Laboratory results reported in ChEMBL document CHEMBL3124747, “Formosusin A, a novel specific inhibitor of mammalian DNA polymerase β from the fungus Paecilomyces formosus” (Bioorg Med Chem, 2014).

Experiments:
[1] = Inhibition of DNA polymerase epsilon isolated from human MOLT4 cells assessed as inhibition of incorporation of dTTP into poly(dA)/oligo(dT)18 after 60 mins; type: cell-free; conditions: molt-4
[2] = Inhibition of cherry salmon DNA polymerase delta assessed as inhibition of incorporation of dTTP into poly(dA)/oligo(dT)18 after 60 mins; design: species or system Oncorhynchus masou
[3] = Inhibition of fruit fly DNA polymerase epsilon assessed as inhibition of incorporation of dTTP into poly(dA)/oligo(dT)18 after 60 mins; design: species or system Drosophila melanogaster
DNA polymerase lambda = biological target: T1, DNA polymerase lambda (Homo sapiens, UniProt Q9UGP5); experiment: Inhibition of human recombinant His-tagged DNA polymerase lambda expressed in Escherichia coli assessed as inhibition of incorporation of dTTP into poly(dA)/oligo(dT)18 after 60 mins
T1 sequence (Q9UGP5 whole entry): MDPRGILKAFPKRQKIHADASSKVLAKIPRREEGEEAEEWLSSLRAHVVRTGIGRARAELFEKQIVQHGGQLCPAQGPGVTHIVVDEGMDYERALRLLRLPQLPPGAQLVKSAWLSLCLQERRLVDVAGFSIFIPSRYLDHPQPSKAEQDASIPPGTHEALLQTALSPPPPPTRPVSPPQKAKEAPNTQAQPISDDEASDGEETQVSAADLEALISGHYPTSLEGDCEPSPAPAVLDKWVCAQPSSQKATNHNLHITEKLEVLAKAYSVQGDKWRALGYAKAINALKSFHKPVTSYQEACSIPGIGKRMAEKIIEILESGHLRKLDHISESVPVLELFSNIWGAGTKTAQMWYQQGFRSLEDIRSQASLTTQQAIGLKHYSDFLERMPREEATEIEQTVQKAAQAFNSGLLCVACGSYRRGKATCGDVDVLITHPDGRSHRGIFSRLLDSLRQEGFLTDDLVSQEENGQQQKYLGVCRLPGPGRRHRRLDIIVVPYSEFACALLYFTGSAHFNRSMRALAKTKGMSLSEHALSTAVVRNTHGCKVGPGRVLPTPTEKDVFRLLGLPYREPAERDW

[4] = Inhibition of C-terminal His-6-tagged L. cv.Nipponbare rice recombinant DNA polymerase lambda expressed in Escherichia coli assessed as inhibition of incorporation of dTTP into poly(dA)/oligo(dT)18 after 60 mins; design: species or system Oryza sativa
[5] = Inhibition of Escherichia coli polymerase DNA polymerase 1 klenow fragment assessed as inhibition of incorporation of dTTP into poly(dA)/oligo(dT)18 after 60 mins
[6] = Inhibition of cauliflower DNA polymerase alpha assessed as inhibition of incorporation of dTTP into poly(dA)/oligo(dT)18 after 60 mins; design: species or system Brassica oleracea var. botrytis
[7] = biological target: T2, DNA polymerase alpha catalytic subunit (Drosophila melanogaster, UniProt P26019); experiment: Inhibition of fruit fly DNA polymerase alpha assessed as inhibition of incorporation of dTTP into poly(dA)/oligo(dT)18 after 60 mins
T2 sequence (P26019 whole entry): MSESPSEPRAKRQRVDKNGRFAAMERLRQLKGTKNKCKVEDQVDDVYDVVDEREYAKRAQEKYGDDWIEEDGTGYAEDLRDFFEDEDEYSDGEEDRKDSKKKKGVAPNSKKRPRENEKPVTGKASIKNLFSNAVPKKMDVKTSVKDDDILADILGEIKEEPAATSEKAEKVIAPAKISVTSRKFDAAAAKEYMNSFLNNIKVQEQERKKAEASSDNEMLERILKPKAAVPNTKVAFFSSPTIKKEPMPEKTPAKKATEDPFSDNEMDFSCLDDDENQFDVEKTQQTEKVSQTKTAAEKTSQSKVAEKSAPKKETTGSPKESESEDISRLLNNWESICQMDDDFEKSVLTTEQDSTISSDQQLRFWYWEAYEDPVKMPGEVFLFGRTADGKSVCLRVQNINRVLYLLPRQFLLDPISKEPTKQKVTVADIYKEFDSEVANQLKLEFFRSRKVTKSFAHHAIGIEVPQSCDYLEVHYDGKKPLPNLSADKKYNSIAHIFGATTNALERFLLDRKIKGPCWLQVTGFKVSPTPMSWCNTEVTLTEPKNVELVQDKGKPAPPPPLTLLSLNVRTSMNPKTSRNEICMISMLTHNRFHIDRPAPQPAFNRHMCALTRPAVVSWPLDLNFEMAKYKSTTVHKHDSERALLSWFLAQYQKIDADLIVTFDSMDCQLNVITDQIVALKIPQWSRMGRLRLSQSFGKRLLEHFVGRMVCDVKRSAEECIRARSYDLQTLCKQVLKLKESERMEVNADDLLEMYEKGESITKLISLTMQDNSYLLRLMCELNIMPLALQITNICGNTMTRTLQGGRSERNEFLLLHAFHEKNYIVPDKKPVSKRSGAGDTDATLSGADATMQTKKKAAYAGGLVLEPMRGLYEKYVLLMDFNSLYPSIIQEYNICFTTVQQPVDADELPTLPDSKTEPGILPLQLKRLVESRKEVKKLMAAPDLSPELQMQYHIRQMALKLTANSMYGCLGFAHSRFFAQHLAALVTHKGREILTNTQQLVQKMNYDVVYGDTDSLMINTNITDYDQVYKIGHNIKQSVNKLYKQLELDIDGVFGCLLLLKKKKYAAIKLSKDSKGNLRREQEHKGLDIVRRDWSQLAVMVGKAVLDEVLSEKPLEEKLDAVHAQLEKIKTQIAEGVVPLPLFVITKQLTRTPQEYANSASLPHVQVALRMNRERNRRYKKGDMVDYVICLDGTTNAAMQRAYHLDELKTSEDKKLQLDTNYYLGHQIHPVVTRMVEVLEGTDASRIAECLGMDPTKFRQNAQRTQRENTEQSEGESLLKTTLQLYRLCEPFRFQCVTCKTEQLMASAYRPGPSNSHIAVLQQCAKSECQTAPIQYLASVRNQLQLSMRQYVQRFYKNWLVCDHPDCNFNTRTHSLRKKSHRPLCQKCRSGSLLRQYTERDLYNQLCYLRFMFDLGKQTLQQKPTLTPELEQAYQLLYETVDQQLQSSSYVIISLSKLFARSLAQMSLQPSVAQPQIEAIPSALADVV

Measured: IC50

CCCCC(=O)/C=C(C)/C=C/CCC(=O)N1CCCC1=O
> 200 µM: all assays above

CCCC[C@@H](O)/C=C(C)/C=C/C=C/C(=O)N1CCCC1=O [PECILOCIN]
> 200 µM: all assays above

CCCC[C@@H](O)/C=C(C)/C=C/C=C\C(=O)N1CCCC1=O
> 200 µM: all assays above

CC(/C=C/CCC(=O)N1CCCC1=O)=C\C1CCCCO1 (configuration not stated)
> 200 µM: all assays above
